Test results from ChEMBL document CHEMBL4420066, “Aryl amine substituted quinoxaline used as anticancer drugs” (2017).
Active and inactive are the calls of the source. The rule behind the calls is not given here.

How the values were obtained:
[1] = molecular target: T1, Serine/threonine-protein kinase AKT (Homo sapiens) (UniProt P31751+Q9Y243+P31749); assay: Inhibition of Akt phosphorylation at S473 residue in human PLC5 cells at 2 uM incubated for 24 hrs in presence of PP2A-C siRNA by Western blotting analysis; format: cell-based
T1 sequence (P31749 whole entry, looked up): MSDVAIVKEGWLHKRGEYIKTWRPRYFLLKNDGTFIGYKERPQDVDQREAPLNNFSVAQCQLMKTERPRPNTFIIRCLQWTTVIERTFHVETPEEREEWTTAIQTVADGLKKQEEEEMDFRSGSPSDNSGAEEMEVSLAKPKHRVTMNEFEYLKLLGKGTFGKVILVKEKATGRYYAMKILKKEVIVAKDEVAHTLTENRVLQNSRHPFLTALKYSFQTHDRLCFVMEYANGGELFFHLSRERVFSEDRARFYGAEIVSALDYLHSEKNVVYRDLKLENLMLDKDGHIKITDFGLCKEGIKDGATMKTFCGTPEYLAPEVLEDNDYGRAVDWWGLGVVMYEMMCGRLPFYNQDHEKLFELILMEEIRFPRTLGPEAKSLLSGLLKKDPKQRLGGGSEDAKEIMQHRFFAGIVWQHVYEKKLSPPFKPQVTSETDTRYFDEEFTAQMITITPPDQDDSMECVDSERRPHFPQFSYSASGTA
T1 sequence (P31751 whole entry, looked up): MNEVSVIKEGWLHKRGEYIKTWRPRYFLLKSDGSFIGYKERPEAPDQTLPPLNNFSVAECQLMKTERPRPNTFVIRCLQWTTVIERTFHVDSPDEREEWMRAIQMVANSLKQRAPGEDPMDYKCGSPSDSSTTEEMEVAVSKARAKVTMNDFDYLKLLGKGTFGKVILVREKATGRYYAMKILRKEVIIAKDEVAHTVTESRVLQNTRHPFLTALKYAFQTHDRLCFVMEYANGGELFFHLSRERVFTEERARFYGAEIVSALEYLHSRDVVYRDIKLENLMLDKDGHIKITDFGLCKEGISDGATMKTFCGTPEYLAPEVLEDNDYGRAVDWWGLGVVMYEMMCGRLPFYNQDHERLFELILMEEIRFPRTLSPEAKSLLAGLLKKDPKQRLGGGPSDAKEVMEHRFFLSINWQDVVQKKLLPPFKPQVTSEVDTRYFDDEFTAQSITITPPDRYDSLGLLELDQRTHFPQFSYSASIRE
T1 sequence (Q9Y243 whole entry, looked up): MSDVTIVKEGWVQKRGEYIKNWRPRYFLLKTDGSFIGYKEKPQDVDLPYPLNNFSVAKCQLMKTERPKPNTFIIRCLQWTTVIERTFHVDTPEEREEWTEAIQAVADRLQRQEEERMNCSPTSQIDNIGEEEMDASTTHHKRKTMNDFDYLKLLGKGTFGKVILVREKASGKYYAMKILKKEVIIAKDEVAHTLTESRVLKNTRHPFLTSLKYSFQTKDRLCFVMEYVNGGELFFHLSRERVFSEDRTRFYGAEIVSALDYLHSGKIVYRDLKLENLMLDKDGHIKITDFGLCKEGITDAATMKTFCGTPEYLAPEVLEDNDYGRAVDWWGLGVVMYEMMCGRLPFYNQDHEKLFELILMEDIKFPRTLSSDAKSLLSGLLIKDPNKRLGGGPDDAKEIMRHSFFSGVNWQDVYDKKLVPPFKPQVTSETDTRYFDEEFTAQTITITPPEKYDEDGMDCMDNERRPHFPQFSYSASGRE

SK-HEP1 [2] = assay: Inhibition of CIP2A protein expression in human SKHEP1 cells assessed as CIP2A protein expression ratio level at 2 uM by Western blotting analysis (Rvb =1); format: functional
Hep 3B2 [3] = assay: Inhibition of CIP2A protein expression in human Hep3B cells assessed as CIP2A protein expression ratio level at 2 uM by Western blotting analysis (Rvb =1); format: functional
HA22T cell line [4] = assay: Inhibition of PP2A-B5 protein expression in human HA22T cells at 1 uM incubated for 24 hrs by Western blotting analysis; format: functional, cell-based
[5] = Inhibition of CIP2A protein expression in human PLC5 cells assessed as CIP2A protein expression ratio level at 0.5 uM by Western blotting analysis (Rvb =1); format: functional
Hep 3B2 [6] = assay: Induction of necrosis in human Hep3B cells >= 2 uM incubated for 48 hrs by annexin-V-FITC staining based by flow cytometry relative to control; format: functional
SK-HEP1 [7] = assay: Induction of apoptosis in human SKHEP1 cells >= 2 uM incubated for 48 hrs by annexin-V-FITC staining based by flow cytometry relative to control; format: functional
SK-HEP1 [8] = assay: Inhibition of CIP2A protein expression in human SKHEP1 cells assessed as CIP2A protein expression ratio level at 0.5 uM by Western blotting analysis (Rvb =1); format: functional
Homo sapiens [9] = organism: Homo sapiens; assay: Induction of apoptosis in human PLC5 cells assessed as induction of PARP cleavage at 0.5 to 4 uM incubated for 48 hrs by Western blotting analysis; format: functional, cell-based
Homo sapiens [10] = organism: Homo sapiens; assay: Induction of CIP2A protein degradation in human PLC5 cells incubated for 4 to 24 hrs; format: functional, cell-based
HA22T cell line [11] = assay: Inhibition of PP2A-A protein expression in human HA22T cells at 1 uM incubated for 24 hrs by Western blotting analysis; format: functional, cell-based
Mus musculus [12] = assay: Suppression of Akt phosphorylation at S473 residue in tumor of human PLC5 cells xenografted in mouse at 10 mg/kg dosed for 4 weeks by Western blot analysis; format: functional, organism-based
Homo sapiens [13] = organism: Homo sapiens; assay: Activation of PP2A in human HA22T cells assessed as increase in protein phosphatase activity at 1 uM incubated for 24 hrs using phosphopeptide substrate incubated for 10 mins by malachite green-phosphate complex assay; format: cell-based
[14] = molecular target: T1, Serine/threonine-protein kinase AKT (Homo sapiens); assay: Inhibition of Akt phosphorylation at S473 residue in human HA22T cells by Western blotting analysis; format: cell-based
[15] = Inhibition of CIP2A protein expression in human PLC5 cells assessed as CIP2A protein expression ratio level at 2 uM by Western blotting analysis (Rvb =1); format: functional
Hep 3B2 [16] = assay: Induction of apoptosis in human Hep3B cells at 2 uM in presence of caspase inhibitor Z-VAD-fmk incubated for 48 hrs by annexin-V-FITC staining based by flow cytometry; format: functional, cell-based
HA22T cell line [17] = assay: Induction of apoptosis in human HA22T cells assessed as caspase-3 activation at 0.5 to 4 uM incubated for 48 hrs by Western blotting analysis; format: functional, cell-based
Hep 3B2 [18] = assay: Induction of apoptosis in human Hep3B cells assessed as induction of PARP cleavage at 0.5 to 4 uM incubated for 48 hrs by Western blotting analysis; format: functional, cell-based
Homo sapiens [19] = assay: Antitumor activity against human PLC5 cells xenografted in mouse assessed as reduction in tumor size at 10 mg/kg dosed for 4 weeks; format: functional, organism-based
Hep 3B2 [20] = assay: Induction of apoptosis in human Hep3B cells assessed as induction of PARP cleavage at 2 uM in presence of caspase inhibitor Z-VAD-fmk incubated for 48 hrs by Western blotting analysis; format: functional, cell-based
Hep 3B2 [21] = assay: Inhibition of CIP2A protein expression in human Hep3B cells assessed as CIP2A protein expression ratio level at 4 uM by Western blotting analysis (Rvb =1); format: functional
HA22T cell line [22] = assay: Inhibition of CIP2A protein expression in human HA22T cells assessed as CIP2A protein expression ratio level at 2 uM by Western blotting analysis (Rvb =1); format: functional
SK-HEP1 [23] = assay: Inhibition of CIP2A protein expression in human SKHEP1 cells assessed as CIP2A protein expression ratio level at 1uM by Western blotting analysis (Rvb =1); format: functional
[24] = molecular target: T1, Serine/threonine-protein kinase AKT (Homo sapiens); assay: Inhibition of Akt phosphorylation at S473 residue in human SKHEP1 cells by Western blotting analysis; format: cell-based
Homo sapiens [25] = organism: Homo sapiens; assay: Inhibition of human CIP2A gene promoter in human PLC5 cells with ectopic overexpression of GFP-tagged Elk-1 assessed as inhibition of ELK1 protein expression at 2 uM by Western blotting analysis; format: cell-based
Mus musculus [26] = assay: Suppression of CIP2A expression in tumor of human PLC5 cells xenografted in mouse at 10 mg/kg dosed for 4 weeks by Western blot analysis; format: functional, organism-based
SK-HEP1 [27] = assay: Induction of apoptosis in human SKHEP1 cells assessed as induction of PARP cleavage at 0.5 to 4 uM incubated for 48 hrs by Western blotting analysis; format: functional, cell-based
SK-HEP1 [28] = assay: Induction of apoptosis in human SKHEP1 cells assessed as induction of DNA fragmentation at 1 uM incubated for 24 hrs by ELISA; format: functional, cell-based
HA22T cell line [29] = assay: Induction of apoptosis in human HA22T cells assessed as accumulation at subG1 phase at 0.5 to 4 uM by flow cytometry; format: functional, cell-based
Hep 3B2 [30] = assay: Inhibition of PP2A-C protein expression in human Hep3B cells at 1 uM incubated for 24 hrs by Western blotting analysis; format: functional, cell-based
Homo sapiens [31] = organism: Homo sapiens; assay: Inhibition of human CIP2A gene promoter activity in human PLC5 cells by luciferase reporter gene assay; format: cell-based
Homo sapiens [32] = organism: Homo sapiens; assay: Induction of necrosis in human PLC5cells >= 2 uM incubated for 48 hrs by annexin-V-FITC staining based by flow cytometry relative to control; format: functional
[33] = Induction of apoptosis in human PLC5 cells >= 2 uM incubated for 48 hrs by annexin-V-FITC staining based by flow cytometry relative to control; format: functional
HA22T cell line [34] = assay: Induction of apoptosis in human HA22T cells assessed as caspase-9 activation at 0.5 to 4 uM incubated for 48 hrs by Western blotting analysis; format: functional, cell-based
Homo sapiens [35] = organism: Homo sapiens; assay: Inhibition of His-tagged recombinant human SET1 protein (1 to 290 amino acids) expressed in Escherichia coli interaction with N-terminal GST-tagged recombinant human PP2A-C (1 to 309 amino acids) assessed as minimal concentration causing disruption of SET-PP2Ac binding by SPR assay
Homo sapiens [36] = organism: Homo sapiens; assay: Induction of apoptosis in human PLC5 cells with ectopic over expression of myc-tagged CIP2A at 2 uM incubated for 24 hrs by annexin-V-FITC staining based by flow cytometry; format: functional, cell-based
Hep 3B2 [37] = assay: Inhibition of CIP2A protein expression in human Hep3B cells assessed as CIP2A protein expression ratio level at 0.5 uM by Western blotting analysis (Rvb =1); format: functional
Hep 3B2 [38] = assay: Inhibition of CIP2A protein expression in human Hep3B cells assessed as CIP2A protein expression ratio level at 1 uM by Western blotting analysis (Rvb =1); format: functional

Structure (SMILES): C#Cc1cccc(Nc2nc3ccccc3nc2Nc2cccc(C#C)c2)c1
- inhibition [1]: inactive
- Ratio (SK-HEP1 [2]): 0.21
- Ratio (Hep 3B2 [3]): 0.49
- inhibition (HA22T cell line [4]): inactive
- Ratio [5]: 0.84
- Activity (Hep 3B2 [6]): 50%
- Activity (SK-HEP1 [7]): 50%
- Ratio (SK-HEP1 [8]): 0.73
- Activity (Homo sapiens [9]): Dose-dependent effect
- Activity (Homo sapiens [10]): inactive
- inhibition (HA22T cell line [11]): inactive
- Activity (Mus musculus [12]): Active
- Activity (Homo sapiens [13]): Active
- inhibition [14]: Dose-dependent effect
- Ratio [15]: 0.01
- Activity (Hep 3B2 [16]): inactive
- Activity (HA22T cell line [17]): Dose-dependent effect
- Activity (Hep 3B2 [18]): Dose-dependent effect
- Activity (Homo sapiens [19]): Active
- Activity (Hep 3B2 [20]): inactive
- Ratio (Hep 3B2 [21]): 0.13
- Ratio (HA22T cell line [22]): 0.36
- Ratio (SK-HEP1 [23]): 0.32
- inhibition [24]: Dose-dependent effect
- inhibition (Homo sapiens [25]): inactive
- Activity (Mus musculus [26]): Active
- Activity (SK-HEP1 [27]): Dose-dependent effect
- Activity (SK-HEP1 [28]): Active
- Activity (HA22T cell line [29]): Active
- inhibition (Hep 3B2 [30]): inactive
- inhibition (Homo sapiens [31]): Dose-dependent effect
- Activity (Homo sapiens [32]): 50%
- Activity [33]: 50%
- Activity (HA22T cell line [34]): Dose-dependent effect
- MEC (Homo sapiens [35]): 100 to 200 nM
- Activity (Homo sapiens [36]): inactive
- Ratio (Hep 3B2 [37]): 0.87
- Ratio (Hep 3B2 [38]): 0.57
